# Molecular target: T1, HEK-Blue-hTLR9 cells (Homo sapiens, UniProt Q9NR96)
# T1 construct: expressed in transfected cells; host or cells: HEK-Blue-hTLR9 cells (HEK293-derived reporter line)
# T1 sequence (Q9NR96 26-1032): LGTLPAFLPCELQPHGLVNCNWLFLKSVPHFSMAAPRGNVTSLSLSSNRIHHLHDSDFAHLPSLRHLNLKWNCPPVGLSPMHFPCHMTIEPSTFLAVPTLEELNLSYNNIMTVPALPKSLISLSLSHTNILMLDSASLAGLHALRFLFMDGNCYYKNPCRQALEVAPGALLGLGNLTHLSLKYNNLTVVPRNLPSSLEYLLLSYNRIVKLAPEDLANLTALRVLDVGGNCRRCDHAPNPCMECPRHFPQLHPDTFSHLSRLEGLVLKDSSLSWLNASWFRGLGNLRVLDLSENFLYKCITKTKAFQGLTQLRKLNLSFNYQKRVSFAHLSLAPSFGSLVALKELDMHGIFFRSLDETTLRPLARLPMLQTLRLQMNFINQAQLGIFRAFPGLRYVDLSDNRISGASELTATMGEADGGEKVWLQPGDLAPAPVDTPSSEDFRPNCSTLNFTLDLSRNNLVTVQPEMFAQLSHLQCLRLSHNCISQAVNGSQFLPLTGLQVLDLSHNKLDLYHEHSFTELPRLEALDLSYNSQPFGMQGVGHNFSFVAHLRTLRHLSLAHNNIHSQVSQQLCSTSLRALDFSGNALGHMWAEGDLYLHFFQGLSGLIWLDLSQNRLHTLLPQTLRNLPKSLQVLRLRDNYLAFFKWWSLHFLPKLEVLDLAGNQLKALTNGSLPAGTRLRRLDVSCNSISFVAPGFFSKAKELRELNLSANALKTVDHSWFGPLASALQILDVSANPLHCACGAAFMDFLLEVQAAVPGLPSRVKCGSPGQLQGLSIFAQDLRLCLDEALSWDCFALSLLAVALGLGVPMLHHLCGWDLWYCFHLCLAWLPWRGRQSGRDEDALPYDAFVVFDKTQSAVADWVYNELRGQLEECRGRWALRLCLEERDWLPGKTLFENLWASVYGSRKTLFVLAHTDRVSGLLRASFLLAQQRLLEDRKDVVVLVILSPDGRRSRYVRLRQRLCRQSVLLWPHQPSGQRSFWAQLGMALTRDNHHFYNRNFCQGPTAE
# Test: HEK-Blue-hTLR9 cell inhibition assay
# Type: cell-based
# Settings: ODN2006 1 µM, 16 h, OD 620 nm, read-out: TLR9 IC50
# Method: HEK-Blue-hTLR7/8/9 cell inhibition assay
# 1. HEK-Blue-hTLR7/8 cells (1 × 10^4 cells/well) and HEK-Blue-hTLR9 cells (1.5 × 10^4 cells/well) were seeded in a 384-well cell culture plate, with a volume of 30 µL per well. The plate was incubated at 37°C in a 5% CO2 incubator for 4 h. 2. The compound was prepared with DMSO and diluted in DMEM medium to 10 concentrations (1:3 dilution), with final concentrations of 10000, 3333.3, 1111.1, 370.4, 123.5, 41.2, 13.7, 4.6, 1.5, and 0.5 nM; R848 was prepared with DMSO and diluted in DMEM medium, with final concentrations of 0.8 µM (HEK-Blue-hTLR7) and 3 µM (HEK-Blue-hTLR8); ODN2006 was prepared with endotoxin-free water and diluted in DMEM medium, with a final concentration of 1 µM. 3. Cells treated with DMSO were used as the blank control group, while cells treated solely with Resiquimod (R848) were used as the positive control group for HEK-Blue-hTLR7/8, and cells treated solely with ODN2006 were used as the positive control group for HEK-Blue-hTLR9. Cells treated with the test compound together with R848 or ODN2006 were used as the test group. Two parallel wells were set for each group and were placed at 37°C in a 5% CO2 incubator for incubation. 4. After being incubated for 4 h, the 384-well plate of HEK-Blue-hTLR7/8 was taken out from the incubator, and R848 alone or both R848 and the diluted compound were separately added into each well. The plate was placed at 37°C in a 5% CO2 incubator for incubation for 16 h; the 384-well plate of HEK-Blue-hTLR9 was taken out from the incubator, and ODN2006 alone or both ODN2006 and the diluted compound were added separately to each well. The plate was incubated at 37°C in a 5% CO2 incubator for 16 h. 5. After being incubated for 16 h, the 384-well plate was removed from the incubator and centrifuged at 1000 rpm for 1 minute. The optical density value of each well at 620 nm was measured using a multifunctional microplate reader. 6. The cell inhibition rate was calculated as (1-(OD620 test group-OD620 blank group)/(OD620 positive group-OD620 blank group))×100%, and the half maximal inhibitory concentration (IC50) was calculated through curve fitting. Table 1: Activity of the compounds of the present disclosure in HEK-Blue-hTLR7/8/9 cellular assays
row,SMILES,IC50
1,"Cc1cc(N2CC3(c4nnc(C5CCN(C)CC5)o4)C[C@]3(C(F)(F)F)C2)c2cnn(C)c2n1 (stereo partly drawn) [Compound 2, 2-((5R)-3-(1,6-dimethyl-1H-pyrazolo[3,4-b]pyridin-4-yl)-5-(trifluoromethyl)-3-azabicyclo[3.1.0]hexan-1-yl)-5-(1-methylpiperidin-4-yl)-1,3,4-oxadiazole]",> 10000 nM
2,"FC(F)(F)c1ccc(N2C[C@]3(c4nnc(C5(F)CCNCC5)o4)C[C@]3(C(F)(F)F)C2)c2cccnc12 [Compound 3, 2-(4-fluoropiperidin-4-yl)-5-((1S,5R)-5-(trifluoromethyl)-3-(8-(trifluoromethyl)quinolin-5-yl)-3-azabicyclo[3.1.0]hexan-1-yl)-1,3,4-oxadiazole]",> 1000 nM
3,"CN1CC(c2nnc([C@]34CN(c5ccc(C(F)(F)F)c6ncccc56)C[C@@]3(C(F)(F)F)C4)o2)C1 [Compound 4, 2-(1-methylazetidin-3-yl)-5-((1S,5R)-5-(trifluoromethyl)-3-(8-(trifluoromethyl)quinolin-5-yl)-3-azabicyclo[3.1.0]hexan-1-yl)-1,3,4-oxadiazole]",> 1000 nM
4,"CN1CCC(C)(c2nnc([C@]34CN(c5ccc(C#N)c6ncccc56)C[C@@]3(C(F)(F)F)C4)o2)CC1 [Compound 8, 5-((1S,5R)-1-(5-(1,4-dimethylpiperidin-4-yl)-1,3,4-oxadiazol-2-yl)-5-(trifluoromethyl)-3-azabicyclo[3.1.0]hexan-3-yl)quinoline-8-carbonitrile]",> 1000 nM
5,"CN1[C@@H]2CC[C@H]1C[C@H](c1nnc([C@]34CN(c5ccc(C#N)c6ncccc56)C[C@@]3(C(F)(F)F)C4)o1)C2 [Compound 11, 5-((1S,5R)-1-(5-((1R,3S,5S)-8-methyl-8-azabicyclo[3.2.1]octan-3-yl)-1,3,4-oxadiazol-2-yl)-5-(trifluoromethyl)-3-azabicyclo[3.1.0]hexan-3-yl)quinoline-8-carbonitrile]",> 1000 nM
6,"CN1CC2(CCC(c3nnc([C@]45CN(c6ccc(C#N)c7ncccc67)C[C@@]4(C(F)(F)F)C5)o3)CC2)C1 [Compound 13, 5-((1S,5R)-1-(5-(2-methyl-2-azaspiro[3.5]nonan-7-yl)-1,3,4-oxadiazol-2-yl)-5-(trifluoromethyl)-3-azabicyclo[3.1.0]hexan-3-yl)quinoline-8-carbonitrile]",> 1000 nM
7,"CN1CC2CC1CC2c1nnc([C@]23CN(c4ccc(C#N)c5ncccc45)C[C@@]2(C(F)(F)F)C3)o1 (stereo partly drawn) [Compound 14, 5-((1S,5R)-1-(5-(2-methyl-2-azabicyclo[2.2.1]heptan-5-yl)-1,3,4-oxadiazol-2-yl)-5-(trifluoromethyl)-3-azabicyclo[3.1.0]hexan-3-yl)quinoline-8-carbonitrile]",> 1000 nM
8,"N#Cc1ccc(N2C[C@]3(c4nnc(C5CCN(CC(N)=O)CC5)o4)C[C@]3(C(F)(F)F)C2)c2cccnc12 [Compound 17, 2-(4-(5-((1S,5R)-3-(8-cyanoquinolin-5-yl)-5-(trifluoromethyl)-3-azabicyclo[3.1.0]hexan-1-yl)-1,3,4-oxadiazol-2-yl)piperidin-1-yl)acetamide]",> 10000 nM
9,"N#Cc1ccc(N2C[C@]3(c4nnc(C5CC6(CNC6)C5)o4)C[C@]3(C(F)(F)F)C2)c2cccnc12 [Compound 18, 5-((1S,5R)-1-(5-(2-azaspiro[3.3]heptan-6-yl)-1,3,4-oxadiazol-2-yl)-5-(trifluoromethyl)-3-azabicyclo[3.1.0]hexan-3-yl)quinoline-8-carbonitrile]",< 1000 nM
10,"N#Cc1ccc(N2C[C@]3(c4nnc([C@H]5CC[C@H](N)CC5)o4)C[C@]3(C(F)(F)F)C2)c2cccnc12 [Compound 20, 5-((1S,5R)-1-(5-((1R,4S)-4-aminocyclohexyl)-1,3,4-oxadiazol-2-yl)-5-(trifluoromethyl)-3-azabicyclo[3.1.0]hexan-3-yl)quinoline-8-carbonitrile]",> 1000 nM

# Other lines, results leading:
row,IC50,SMILES
1,> 10000 nM,"CN1CCN(c2nnc([C@]34CN(c5ccc(C#N)c6ncccc56)C[C@@]3(C(F)(F)F)C4)o2)CC1 [Compound 1, 5-((1S,5R)-1-(5-(4-methylpiperazin-1-yl)-1,3,4-oxadiazol-2-yl)-5-(trifluoromethyl)-3-azabicyclo[3.1.0]hexan-3-yl)quinoline-8-carbonitrile]"
2,> 1000 nM,"CN1CCC(c2nnc([C@]34CN(c5ccc(C#N)c6ncccc56)C[C@@]3(C(F)(F)F)C4)n2C)CC1 [Compound 5, 5-((1S,5R)-1-(4-methyl-5-(1-methylpiperidin-4-yl)-4H-1,2,4-triazol-3-yl)-5-(trifluoromethyl)-3-azabicyclo[3.1.0]hexan-3-yl)quinoline-8-carbonitrile]"
3,> 1000 nM,"CN1CCC(Nc2nnc([C@]34CN(c5ccc(C#N)c6ncccc56)C[C@@]3(C(F)(F)F)C4)o2)CC1 [Compound 6, 5-((1S,5R)-1-(5-((1-methylpiperidin-4-yl)amino)-1,3,4-oxadiazol-2-yl)-5-(trifluoromethyl)-3-azabicyclo[3.1.0]hexan-3-yl)quinoline-8-carbonitrile]"
4,> 10000 nM,"N#Cc1ccc(N2C[C@]3(c4nnc(N)o4)C[C@]3(C(F)(F)F)C2)c2cccnc12 [Compound 7, 5-((1S,5R)-1-(5-amino-1,3,4-oxadiazol-2-yl)-5-(trifluoromethyl)-3-azabicyclo[3.1.0]hexan-3-yl)quinoline-8-carbonitrile]"
5,> 1000 nM,"CN1CCC(c2nnc([C@]34CN(c5ccc(C#N)c6ncccc56)C[C@@]3(C(F)(F)F)C4)[nH]2)CC1 [Compound 9, 5-((1S,5R)-1-(5-(1-methylpiperidin-4-yl)-4H-1,2,4-triazol-3-yl)-5-(trifluoromethyl)-3-azabicyclo[3.1.0]hexan-3-yl)quinoline-8-carbonitrile]"
6,> 10000 nM,"N#Cc1ccc(N2C[C@]3(c4nnc(C5CCOCC5)o4)C[C@]3(C(F)(F)F)C2)c2cccnc12 [Compound 12, 5-((1S,5R)-1-(5-(tetrahydro-2H-pyran-4-yl)-1,3,4-oxadiazol-2-yl)-5-(trifluoromethyl)-3-azabicyclo[3.1.0]hexan-3-yl)quinoline-8-carbonitrile]"
7,> 1000 nM,"CN1CCC(Oc2nnc([C@]34CN(c5ccc(C#N)c6ncccc56)C[C@@]3(C(F)(F)F)C4)o2)CC1 [Compound 15, 5-((1S,5R)-1-(5-((1-methylpiperidin-4-yl)oxy)-1,3,4-oxadiazol-2-yl)-5-(trifluoromethyl)-3-azabicyclo[3.1.0]hexan-3-yl)quinoline-8-carbonitrile]"
8,> 1000 nM,"CN1CC2(CC(c3nnc([C@]45CN(c6ccc(C#N)c7ncccc67)C[C@@]4(C(F)(F)F)C5)o3)C2)C1 [Compound 19, 5-((1S,5R)-1-(5-(2-methyl-2-azaspiro[3.3]heptan-6-yl)-1,3,4-oxadiazol-2-yl)-5-(trifluoromethyl)-3-azabicyclo[3.1.0]hexan-3-yl)quinoline-8-carbonitrile]"
